Test results from the supplement of paper PMC11061612.

Key:
Test in all cases: Bliss excess, mean over the matrix (fraction); higher = more synergy
[1] = test system: HO-1-N-1 (Oral Cavity Carcinoma)
Procedure, shortened: (§1)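 Cell lines grown in DMEM/F12 or RPMI with 10% FBS were plated in 1536-well plates and held 24 hours at 37°C, 5% CO2 before 72 hours of exposure to two-drug dose matrices, with DMSO typically at 0.2%. CellTiter-Glo 2.0 luminescence gave viability, which was converted to inhibition. Vehicle wells were set to 0 and blank wells to 1. Combination Emax is the second-highest inhibition in the matrix, and Bliss excess is the observed combination effect minus the expected EA + EB − EA·EB, where EA and EB are the single-agent effects.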

[2] = test system: SK-ES-1 (Ewing's Sarcoma)
Procedure, shortened: as §1

[3] = test system: ME-1 (Acute Myeloid Leukemia)
Procedure, shortened: as §1

[4] = test system: NCI-H82 (Small Cell Lung Carcinoma)
Procedure, shortened: as §1

AGS (Gastric Carcinoma) = test system: AGS (Gastric Carcinoma)
Procedure, shortened: as §1

[5] = test system: TE-9 (Esophageal Squamous Cell Carcinoma)
Procedure, shortened: as §1

[6] = test system: Ramos-2G6-4C10 (Burkitt's Lymphoma)
Procedure, shortened: as §1

[7] = test system: LU-135 (Small Cell Lung Carcinoma)
Procedure, shortened: as §1

[8] = test system: DEL (T-Cell Non-Hodgkin's Lymphoma)
Procedure, shortened: as §1

[9] = test system: COLO-205 (Colorectal Carcinoma)
Procedure, shortened: as §1

T98G (Glioblastoma) = test system: T98G (Glioblastoma)
Procedure, shortened: as §1

ES4 (Ewing's Sarcoma) = test system: ES4 (Ewing's Sarcoma)
Procedure, shortened: as §1

[10] = test system: DoTc2-4510 (Cervical Carcinoma)
Procedure, shortened: as §1

[11] = test system: UM-UC-3 (Bladder Carcinoma)
Procedure, shortened: as §1

[12] = test system: TE-15 (Esophageal Squamous Cell Carcinoma)
Procedure, shortened: as §1

[13] = test system: HCC-78 (Lung Adenocarcinoma)
Procedure, shortened: as §1

42-MG-BA (Glioblastoma) = test system: 42-MG-BA (Glioblastoma)
Procedure, shortened: as §1

[14] = test system: EC-GI-10 (Esophageal Squamous Cell Carcinoma)
Procedure, shortened: as §1

[15] = test system: SNU-5 (Gastric Carcinoma)
Procedure, shortened: as §1

[16] = test system: TCCSUP (Bladder Carcinoma)
Procedure, shortened: as §1

Cn1cnc2c(F)c(Nc3ccc(Br)cc3Cl)c(C(=O)NOCCO)cc21 [Selumetinib] + CCN(CCO)CCCOc1ccc2c(Nc3cc(CC(=O)Nc4cccc(F)c4)[nH]n3)ncnc2c1 [AZD2811] (first compound max 10 µM, 7x7, partner max 1 µM)
Bliss excess [1]: -0.0692
Bliss excess [2]: -0.0272
Bliss excess [3]: -0.0296
Bliss excess [4]: 0.0317
Bliss excess (AGS (Gastric Carcinoma)): 0.11
Bliss excess [5]: -0.0347
Bliss excess [6]: -0.0321
Bliss excess [7]: -0.0118
Bliss excess [8]: 0.263
Bliss excess [9]: -0.0081
Bliss excess (T98G (Glioblastoma)): -0.0104
Bliss excess (ES4 (Ewing's Sarcoma)): -0.0398
Bliss excess [10]: -0.0098
Bliss excess [11]: -0.048
Bliss excess [12]: -0.0741
Bliss excess [13]: -0.0124
Bliss excess (42-MG-BA (Glioblastoma)): -0.0458
Bliss excess [14]: 0.0087
Bliss excess [15]: 0.0274
Bliss excess [16]: -0.0822

Cc1c2c(nn1C)CSCc1cc(n(C)n1)CSc1cc(c3ccccc3c1)OCCCc1c(C(=O)O)n(C)c3c-2c(Cl)ccc13 [AZD5991] + C=CCn1c(=O)c2cnc(Nc3ccc(N4CCN(C)CC4)cc3)nc2n1-c1cccc(C(C)(C)O)n1 [AZD1775] (first compound max 1 µM, partner max 1 µM)
Bliss excess [1]: -0.0348
Bliss excess [2]: -0.0008
Bliss excess [3]: 0.041
Bliss excess [4]: -0.0532
Bliss excess (AGS (Gastric Carcinoma)): -0.0145
Bliss excess [5]: 0.0286
Bliss excess [6]: -0.0413
Bliss excess [7]: -0.0654
Bliss excess [8]: -0.0201
Bliss excess [9]: -0.0959
Bliss excess (T98G (Glioblastoma)): -0.0198
Bliss excess (ES4 (Ewing's Sarcoma)): 0.0578
Bliss excess [10]: -0.0399
Bliss excess [11]: -0.0077
Bliss excess [12]: -0.0135
Bliss excess [13]: -0.0329
Bliss excess (42-MG-BA (Glioblastoma)): 0.0071
Bliss excess [14]: 0.0389
Bliss excess [15]: -0.0291
Bliss excess [16]: -0.0021

CN(CCO)CC[C@H](CSc1ccccc1)Nc1ccc(S(=O)(=O)NC(=O)c2ccc(N3CCC([C@@H](O)c4ccccc4-c4ccc(Cl)cc4)CC3)cc2)cc1S(=O)(=O)C(F)(F)F [AZD4320] + CCN(CCO)CCCOc1ccc2c(Nc3cc(CC(=O)Nc4cccc(F)c4)[nH]n3)ncnc2c1 [AZD2811] (first compound max 1 µM, 7x7, partner max 1 µM)
Bliss excess [1]: -0.0255
Bliss excess [2]: 0.0156
Bliss excess [3]: 0.0068
Bliss excess [4]: 0.0891
Bliss excess (AGS (Gastric Carcinoma)): 0.192
Bliss excess [5]: 0.03
Bliss excess [6]: 0.18
Bliss excess [7]: -0.0124
Bliss excess [8]: -0.124
Bliss excess [9]: -0.0154
Bliss excess (T98G (Glioblastoma)): 0.0346
Bliss excess (ES4 (Ewing's Sarcoma)): 0.0157
Bliss excess [10]: 0.114
Bliss excess [11]: 0.0325
Bliss excess [12]: -0.0393
Bliss excess [13]: -0.0361
Bliss excess (42-MG-BA (Glioblastoma)): 0.15
Bliss excess [14]: 0.0532
Bliss excess [15]: -0.0115
Bliss excess [16]: -0.0194

Cc1nc(Nc2ncc(C(=O)Nc3c(C)cccc3Cl)s2)cc(N2CCN(CCO)CC2)n1 [Dasatinib] + CC(=O)Nc1cccc(-n2c(=O)n(C3CC3)c(=O)c3c(Nc4ccc(I)cc4F)n(C)c(=O)c(C)c32)c1 [Trametinib] (first compound max 2 µM, 7x7, partner max 1 µM)
Bliss excess [1]: 0.0676
Bliss excess [2]: -0.0256
Bliss excess [3]: 0.0126
Bliss excess [4]: -0.0149
Bliss excess (AGS (Gastric Carcinoma)): 0.0433
Bliss excess [5]: -0.0104
Bliss excess [6]: 0
Bliss excess [7]: -0.0258
Bliss excess [8]: 0.0076
Bliss excess [9]: -0.128
Bliss excess (T98G (Glioblastoma)): 0.0187
Bliss excess (ES4 (Ewing's Sarcoma)): -0.0951
Bliss excess [10]: -0.0338
Bliss excess [11]: 0.112
Bliss excess [12]: -0.0414
Bliss excess [13]: -0.0361
Bliss excess (42-MG-BA (Glioblastoma)): -0.023
Bliss excess [14]: -0.0871
Bliss excess [15]: -0.0708
Bliss excess [16]: -0.0443

Cn1cnc2c(F)c(Nc3ccc(Br)cc3Cl)c(C(=O)NOCCO)cc21 [Selumetinib] + C=CCn1c(=O)c2cnc(Nc3ccc(N4CCN(C)CC4)cc3)nc2n1-c1cccc(C(C)(C)O)n1 [AZD1775] (first compound max 10 µM, partner max 1 µM)
Bliss excess [1]: -0.0206
Bliss excess [2]: -0.0706
Bliss excess [3]: -0.0255
Bliss excess [4]: -0.106
Bliss excess (AGS (Gastric Carcinoma)): 0.0064
Bliss excess [5]: -0.0343
Bliss excess [6]: -0.0956
Bliss excess [7]: -0.0337
Bliss excess [8]: -0.043
Bliss excess [9]: -0.0256
Bliss excess (T98G (Glioblastoma)): -0.0395
Bliss excess (ES4 (Ewing's Sarcoma)): -0.0679
Bliss excess [10]: -0.0164
Bliss excess [11]: -0.0187
Bliss excess [12]: -0.0299
Bliss excess [13]: -0.0293
Bliss excess (42-MG-BA (Glioblastoma)): -0.0509
Bliss excess [14]: -0.0424
Bliss excess [15]: -0.0239
Bliss excess [16]: -0.0432

Cc1cc2ncnn2cc1Nc1ncc2c(n1)n(C1CCOCC1)c(=O)n2C [AZD7648] + CN(C)CCCOc1ccc(-c2ccc3ncc4c(c3c2)n(C2CCOCC2)c(=O)n4C)cn1 [AZD0156] (first compound max 10 µM, 7x7, partner max 1 µM)
Bliss excess [1]: 0.0046
Bliss excess [2]: 0.0628
Bliss excess [3]: -0.0326
Bliss excess [4]: 0.0094
Bliss excess (AGS (Gastric Carcinoma)): 0.0178
Bliss excess [5]: 0.009
Bliss excess [6]: 0.0236
Bliss excess [7]: -0.0088
Bliss excess [8]: 0.0956
Bliss excess [9]: 0.0271
Bliss excess (T98G (Glioblastoma)): -0.0317
Bliss excess (ES4 (Ewing's Sarcoma)): -0.0163
Bliss excess [10]: 0.0054
Bliss excess [11]: 0.014
Bliss excess [12]: -0.0383
Bliss excess [13]: 0.0106
Bliss excess (42-MG-BA (Glioblastoma)): -0.0313
Bliss excess [14]: 0.0001
Bliss excess [15]: 0.0166
Bliss excess [16]: -0.011

CC(=O)c1c(C)c2cnc(Nc3ccc(N4CCNCC4)cn3)nc2n(C2CCCC2)c1=O [Palbociclib] + CC1(C)CCC(CN2CCN(c3ccc(C(=O)NS(=O)(=O)c4ccc(NCC5CCOCC5)c([N+](=O)[O-])c4)c(Oc4cnc5[nH]ccc5c4)c3)CC2)=C(c2ccc(Cl)cc2)C1 [Venetoclax] (first compound max 10 µM, 7x7, partner max 1 µM)
Bliss excess [1]: -0.0322
Bliss excess [2]: 0.0758
Bliss excess [3]: -0.0012
Bliss excess [4]: -0.0648
Bliss excess (AGS (Gastric Carcinoma)): -0.0493
Bliss excess [5]: -0.035
Bliss excess [6]: -0.106
Bliss excess [7]: 0.0482
Bliss excess [8]: 0.027
Bliss excess [9]: -0.0065
Bliss excess (T98G (Glioblastoma)): -0.0075
Bliss excess (ES4 (Ewing's Sarcoma)): -0.0334
Bliss excess [10]: -0.058
Bliss excess [11]: -0.0219
Bliss excess [12]: -0.0257
Bliss excess [13]: -0.0244
Bliss excess (42-MG-BA (Glioblastoma)): -0.0093
Bliss excess [14]: -0.0031
Bliss excess [15]: 0.0453
Bliss excess [16]: -0.0508
